Reference: ChEMBL document CHEMBL4138081, “Recent developments of coumarin-containing derivatives and their anti-tubercular activity” (Eur J Med Chem, 2017)
≈ marks a conversion by molar mass, not a printed value.

Columns and labels:
[1] = tested on: Mycobacterium tuberculosis; assay: Antimycobacterial activity against Mycobacterium tuberculosis H37Rv after 72 hrs by alamar blue dye-based broth dilution assay; assay type: functional
[2] = tested on: Mycobacterium tuberculosis; assay: Antimycobacterial activity against Mycobacterium tuberculosis H37Rv […] by BACTEC MGIT method; assay type: functional
[3] = tested on: Mycobacterium tuberculosis; assay: Antimycobacterial activity against Mycobacterium tuberculosis H37Rv after 12 to 28 days by Lowenstein and Jensen method; assay type: functional
[4] = tested on: Mycobacterium tuberculosis; assay: Antimycobacterial activity against Mycobacterium tuberculosis after 5 days by MABA; assay type: functional; conditions: 120 h
[5] = tested on: Mycobacterium tuberculosis; assay: Antimycobacterial activity against Mycobacterium tuberculosis ATCC 27294 by MABA; assay type: functional
[6] = tested on: Mycobacterium tuberculosis; assay: Antimycobacterial activity against Mycobacterium tuberculosis H37Rv by MABA; assay type: functional
[7] = tested on: Mycobacterium tuberculosis; assay: Growth inhibition of Mycobacterium tuberculosis H37Rv at 6.25 ug/ml by MABA method relative to control; assay type: functional; conditions: read-out: GI
Mycolicibacterium vaccae = assay: Antimycobacterial activity against Mycolicibacterium vaccae 10670; assay type: functional
[8] = tested on: Mycolicibacterium smegmatis; assay: Antimycobacterial activity against Mycobacterium smegmatis CMCC 93202; assay type: functional
[9] = tested on: Mycolicibacterium smegmatis; assay: Potency index, ratio of ciprofloxacin MIC to compound MIC for Mycobacterium smegmatis CMCC 93202; assay type: functional
[10] = tested on: Mycolicibacterium smegmatis; assay: Potency index, ratio of MIC for 8-OCH3 ciprofloxacin to MIC for test compound for Mycobacterium smegmatis CMCC 93202; assay type: functional
[11] = tested on: Mycolicibacterium smegmatis; assay: Potency index, ratio of MIC for moxifloxacin to MIC for test compound for Mycobacterium smegmatis CMCC 93202; assay type: functional
[12] = tested on: Mycolicibacterium smegmatis; assay: Potency index, ratio of MIC for rifampin to MIC for test compound for Mycobacterium smegmatis CMCC 93202; assay type: functional
[13] = tested on: Mycobacterium tuberculosis; assay: Antimycobacterial activity against Mycobacterium tuberculosis H37Rv ATCC 27294 by BACTEC method; assay type: functional
[14] = tested on: Mycobacterium tuberculosis; assay: Antimycobacterial activity against Mycobacterium tuberculosis H37Rv by BACTEC radiometric assay; assay type: functional
[15] = Cytotoxicity against African green monkey Vero cells by CellTiter 96 non-radioactive cell proliferation assay; assay type: cell-based; conditions: chlorocebus sabaeus, read-out: LD50 (the source's name)
[16] = Selectivity index, ratio of LD50 for African green monkey Vero cells to MIC>99 for Mycobacterium tuberculosis H37Rv; assay type: toxicity; conditions: read-out: Selectivity Index
[17] = tested on: Mycobacterium tuberculosis; assay: Antimycobacterial activity against Mycobacterium tuberculosis H37Rv by broth dilution assay; assay type: functional

Cc1cc2oc(=O)c(C(c3cccs3)c3c(O)c4cc(C)c(C)cc4oc3=O)c(C)c2cc1C (stereo unspecified)
MIC [1]: 5.22 µM (≈ 2.47 µg/mL)

Cn1c(=O)cc(Oc2nc(Nc3ccc(C#N)c(C(F)(F)F)c3)nc(N3CCN(c4ccc(C(F)(F)F)cc4)CC3)n2)c2ccccc21
MIC [2]: > 6.25 µg/mL
MIC [3]: 100 to 1000 µg/mL (≈ 150 to 1500 µM)

Cc1cc(=O)oc2cc(OCc3cn(Cc4cc(=O)oc5cc(Cl)ccc45)nn3)ccc12
MIC [4]: 6.25 µg/mL (≈ 13.9 µM)

O=C(N/N=C/c1cccc(Cl)c1)c1cc2ccccc2oc1=O
MIC [5]: 50 to 100 µg/mL (≈ 153 to 306 µM)

COc1cccc(/C=N/NC(=O)c2cc3ccccc3oc2=O)c1
MIC [5]: 50 to 100 µg/mL (≈ 155 to 310 µM)

N#Cc1ccc(Nc2nc(Oc3cc(=O)oc4ccccc34)nc(N3CCN(c4ccc(F)cc4)CC3)n2)cc1C(F)(F)F
MIC [2]: > 6.25 µg/mL
MIC [3]: 100 to 1000 µg/mL (≈ 166 to 1660 µM)

Cn1c(=O)cc(Oc2nc(Nc3ccc(C#N)c(C(F)(F)F)c3)nc(N3CCN(c4cccc(C(F)(F)F)c4)CC3)n2)c2ccccc21
MIC [2]: > 6.25 µg/mL
MIC [3]: 100 to 1000 µg/mL (≈ 150 to 1500 µM)

N#Cc1ccc(Nc2nc(Oc3cc(=O)oc4ccccc34)nc(N3CCN(c4cccc(C(F)(F)F)c4)CC3)n2)cc1C(F)(F)F
MIC [2]: > 6.25 µg/mL
MIC [3]: 100 to 1000 µg/mL (≈ 153 to 1530 µM)

Cn1c(=O)cc(Oc2nc(Nc3ccc(C#N)c(C(F)(F)F)c3)nc(N3CCN(c4ccc(F)cc4)CC3)n2)c2ccccc21
MIC [2]: > 6.25 µg/mL
MIC [3]: 100 to 1000 µg/mL (≈ 162 to 1620 µM)

Oc1ccc(-c2cc(-c3ccc(Cl)cc3)nc(/N=c3\ccc4ccccc4o3)n2)cc1
MIC [6]: 9.6 to 240 µg/mL (≈ 22.5 to 564 µM)
inhibition of growth at 6.25 µg/mL [7]: 70%

Cc1cc(=O)oc2cc(OCc3cn(Cc4cc(=O)oc5ccc6ccccc6c45)nn3)ccc12
MIC [4]: 6.25 µg/mL (≈ 13.4 µM)

Cc1ccc2oc(=O)c3c(O)c4cccc(O[C@@H]5O[C@H](C)[C@@H](O)[C@H](O)[C@H]5O[C@@H]5O[C@@H](C)[C@@H](O)[C@@H](O)[C@@H]5O)c4c4oc(=O)c1c2c34
MIC (Mycolicibacterium vaccae): 1.22 µM (≈ 0.764 µg/mL)

O=C(N/N=C/c1cccc(O)c1)c1cc2ccccc2oc1=O
MIC [5]: 50 to 100 µg/mL (≈ 162 to 324 µM)

COc1ccc(-c2cc(-c3ccc(O)cc3)nc(/N=c3\ccc4ccccc4o3)n2)cc1
MIC [6]: 9.6 to 240 µg/mL (≈ 22.8 to 569 µM)
inhibition of growth at 6.25 µg/mL [7]: 37%

O=c1oc2ccccc2cc1C(c1cccs1)c1c(O)c2ccccc2oc1=O (stereo unspecified)
MIC [1]: 5.22 µM (≈ 2.1 µg/mL)

O=C(N/N=C/c1ccc(O)cc1O)c1cc2ccccc2oc1=O
MIC [5]: 50 to 100 µg/mL (≈ 154 to 308 µM)

COc1ccc(/C=N/NC(=O)c2cc3ccccc3oc2=O)cc1
MIC [5]: 50 to 100 µg/mL (≈ 155 to 310 µM)

COc1ccc2cc(C(=O)CN3CCN(c4c(F)cc5c(=O)c(C(=O)O)cn(C6CC6)c5c4OC)CC3)c(=O)oc2c1
MIC [8]: 0.25 µg/mL (≈ 0.433 µM)
Ratio [9]: 2 - 8
Ratio [10]: 2 - 8
Ratio [11]: 2 - 8
Ratio [12]: 2 - 8

N#Cc1ccc(Nc2nc(Oc3cc(=O)oc4ccccc34)nc(N3CCN(c4ccccc4F)CC3)n2)cc1C(F)(F)F
MIC [2]: > 6.25 µg/mL
MIC [3]: 100 to 1000 µg/mL (≈ 166 to 1660 µM)

CCCc1cc(=O)oc2c3c(c4c(c12)OC(C)(C)C=C4)O[C@H](C)[C@@H](C)[C@@H]3O [CALANOLIDE A]
MIC [13]: 3.13 µg/mL (≈ 8.45 µM)

Cc1cc(=O)oc2cc(OCc3cn(Cc4cc(=O)oc5ccc(Cl)cc45)nn3)ccc12
MIC [4]: 6.25 µg/mL (≈ 13.9 µM)

NC(=O)c1cnccn1 [PYRAZINAMIDE]
MIC [5]: > 100 µg/mL

O=C(N/N=C/c1ccc(O)cc1)c1cc2ccccc2oc1=O
MIC [5]: 50 to 100 µg/mL (≈ 162 to 324 µM)

O=C(N/N=C/c1ccc([N+](=O)[O-])cc1)c1cc2ccccc2oc1=O
MIC [5]: 50 to 100 µg/mL (≈ 148 to 296 µM)

Cn1c(=O)cc(Oc2nc(Nc3ccc(C#N)c(C(F)(F)F)c3)nc(N3CCN(c4ccccc4F)CC3)n2)c2ccccc21
MIC [2]: > 6.25 µg/mL
MIC [3]: 100 to 1000 µg/mL (≈ 162 to 1620 µM)

COc1ccc(-c2cc(-c3ccc([N+](=O)[O-])cc3)nc(/N=c3\ccc4ccccc4o3)n2)cc1
MIC [6]: 9.6 to 240 µg/mL (≈ 21.3 to 533 µM)
inhibition of growth at 6.25 µg/mL [7]: 65%

C[C@H]1[C@H](C)Oc2c3c(c4c(-c5ccccc5)cc(=O)oc4c2[C@H]1O)OC(C)(C)C=C3 [SOULATTROLIDE]
MIC99 [14]: 3.13 µg/mL (≈ 7.74 µM)
CC50 [15]: > 10 µg/mL
selectivity ratio [16]: > 3.2

O=c1oc2ccccc2cc1-c1cn2nc(C(F)(F)F)sc2n1
MIC [17]: 40 µg/mL (≈ 119 µM)

N#Cc1ccc(Nc2nc(Oc3cc(=O)oc4ccccc34)nc(N3CCN(c4ccc(C(F)(F)F)cc4)CC3)n2)cc1C(F)(F)F
MIC [2]: > 6.25 µg/mL
MIC [3]: 100 to 1000 µg/mL (≈ 153 to 1530 µM)
